Assay results reported in publication PMC12811658, “Design, Synthesis, and Structural Evolution of Pseudo‐Natural Product IDO1 Inhibitors and Degraders” (Angewandte Chemie (International Ed. in English), 2025).

Key:
[1] = tested on: SKOV-3 tumor; assay: SKOV-3 tumor-bearing mouse model; assay type: in vivo, NSG immunodeficient mice; conditions: 30 mg kg−1 IP twice daily
Protocol: Incubation at 37 °C for 3 h. Representative data for n = 3. c) Time‐course of heme displacement from IDO1 detected by the absorbance at the Soret peak (404 nm) as a function of time. […] All curves were fit using a one‐site model with N = 1 and defined IDO1 concentration. Left plots show baseline corrected data, while right plots show integrated binding isotherms versus iDegs/IDO1 ratio. IDO1 protein (125 µM) was titrated into the stirred sample cell containing iDegs (25 µM, except for iDeg‐8 at 50 µM). Representative data for n = 3, except for iDeg‐9 (n = 2). g)–i) In vivo activity of iDeg‐6. NSG immunodeficient mice were injected with SKOV‐3 cells. Mice were treated with 18 intraperitoneal injections of iDeg‐6 (30 mg kg^−1) or vehicle. The pharmacological treatment was twice daily. Tumor volume was determined weekly by digital caliper. g) SKOV‐3 tumor growth curves in iDeg‐6‐treated mice (n = 12, green lines) or vehicle‐treated mice (n = 13, gray lines). Statistical analysis was performed by two‐way ANOVA: ****p < 0.001. h) Body weight changes during treatment window (mean values ± range). i) Survival data are shown by Kaplan‐Meier survival analysis. Mantel–Haenszel statistical analysis: p < 0.0001).
The limited clinical efficacy of IDO1 inhibitors is likely due in part to its non‐enzymatic functions that are not targeted by catalytic inhibition.^[ [32], [33], [34], [35], [36], [37], [38] ^] […] SKOV‐3 cells were subsequently engrafted into NSG immunodeficient mice to establish a SKOV‐3 tumor‐bearing model (Figure S11a). Mice were treated with iDeg‐6 at a dose of 30 mg kg^−1, administered twice daily for 18 days.
NSG female mice (NOD.Cg-PrkdcSCIDIl2rgtm1Wjl/SzJ) were purchased from Charles River (Calco, Italia) with 10 weeks age. […] Tumor volume was determined weekly by digital caliper from 10 days after tumor challenging to the endpoint of the experiment (day 80). […] All animal experiments were under the Amsterdam Protocol on animal protection and welfare: mice were monitored daily and euthanized when displaying excessive discomfort.

[2] = tested on: C57Bl/6 mice; assay: Tolerability (dose escalation PO and IP); assay type: in vivo, male C57Bl/6 mice; conditions: for dose up to which no clinical signs were observed: dose escalation over 3-5 days
[3] = tested on: IDO1 mRNA levels in SKOV-3 cells; assay: RT-qPCR of IDO1 expression; assay type: cell-based; conditions: 24 h
Protocol: a, IDO1 mRNA levels in SKOV-3 cells.
To assess IDO1 gene expression in the SKOV3 cell line, SKOV3 cells were seeded into 24-well plates. After 24 h, the cells were treated with the indicated concentrations of compounds, followed by an additional 24 h incubation.

Structure (SMILES): C#Cc1ccc(NC(=O)OC[C@]23CN(S(=O)(=O)c4ccc(C(C)(C)C)cc4C)C[C@H]2C[C@H]2C[C@@H]3C2(C)C)cc1 [98 (iDeg-6), ((3aS,4R,6R,7aS)-2-((4-(tert-butyl)-2-methylphenyl)sulfonyl)-5,5-dimethyloctahydro-3aH-4,6-methanoisoindol-3a-yl)methyl (4-ethynylphenyl)carbamate]
- body weight (in words) [1]: no significantly negative impact on body weight
- overall survival (in words) ([1]; Kaplan-Meier): significantly improved the overall survival time
- tumor growth (in words) ([1]; p < 0.001 vs control): significant inhibition of tumor growth
- clinical signs (in words) ([2]; 60 mg/kg IP, individual animals, shortly after administration): piloerection, subdued behavior
- dose up to which no clinical signs were observed ([2]; IP): ≤ 30 mg/kg
- dose up to which no clinical signs were observed ([2]; PO): Up to 120 mg/kg
- tolerability (in words) ([2]; up to 30 mg kg−1 IP, no clinical signs): well tolerated
- IDO1 transcription (in words) [3]: without affecting its transcription
